Experimental data taken from patent US12691130B2, “Compositions and methods for improving cognitive function” (Diamond Therapeutics Inc., priority 2019, dated 2026).
Entries after “also recorded” stand apart in the source; their conditions may differ.

Tests used:
Long Evans rats [1] = assay: 5CSRTT with 10 s ITI, premature (PREM) and perseverative (PSV) responses; assay type: in vivo; settings: 0.05 mg/kg S.C., 24 rats
Procedure: A) Graphs show increase in PREM and PSV responses under a 5 second inter-trial interval (ITI) which establishes a baseline (Base) and a 10 second ITI across 24 animals across two doses of psilocybin (0.05 mg/kg and 0.1 mg/kg). Standard deviation is indicated by error bars; asterisks (*) indicate significance vs. vehicle (P=0.05) using T-test. B) Graphs show effects of psilocybin on PREM and PSV in low performer and high performer subgroups. Standard error of the mean is indicated by error bars; asterisks (*) indicate significance vs. vehicle (P<0.01) using T-test. High performers are defined as rats with the highest tertile of premature responses in the baseline test; low performers are rats with the bottom tertile of premature responses in the baseline test.
Experiments were conducted to test psilocybin doses in the range of 0.05-0.2 mg/kg psilocybin administered S.C. across progressive ratio (PR) and 5-choice serial reaction time task (5CSRTT) to examine the effect of psilocybin on endophenotypes of motivation and attention. In each study, a population of out-bred Long Evans rats was first tested as a group for response to the PR and 5CSRTT. Each group was then divided into sub-groups by tertiles according to performance, and then exposed to various dose levels immediately prior to re-testing at various psilocybin dose levels. […]

[2] = Psilocybin plasma pharmacokinetics after s.c. psilocybin; assay type: in vivo; settings: rats
Procedure: Psilocybin doses of 0.05, 0.1, 1, 10 mg/kg were used to evaluate psilocybin and psilocin PK in rats.
Details of the plasma concentration studies are shown in Tables 1-8 (psilocybin) and 9-16 (psilocin). Values in italics are below the lower level of quantitation (BLQ, <1 ng/mL) but were included in calculations. Values in bold and underlined are considered to be outliers and were omitted from calculations. Measured dosing solution concentrations were 0.0460, 0.0967, 0.948 and 9.65 mg/mL for 0.05, 0.1, 1 and 10 […].

rats = assay: Dose finding: locomotor activity (distance travelled); assay type: in vivo
Description: Stimulant drugs cause far larger increases in distance travelled with escalating doses, reflective of a direct motor stimulant property not seen with psilocybin.

5-HT2A receptor = 5-HT2A receptor (Rattus norvegicus, UniProt P14842); assay: Dose finding: behavioral syndrome, wet dog shakes (WDS) and back muscle contractions (BMC); settings: rats
Procedure: The total number (N) of wet dog shakes (WDS) and back muscle contractions (BMC) is plotted against dose (mg/kg).
Psilocybin was tested at a dose range of 0.03-10.0 mg/kg administered sub-cutaneously (S.C.) Behavioral syndrome including wet dog shakes (WDS) and back muscle contractions (BMC) are characteristic of 5-HT2A receptor activity and potentially indicative of psychomotor signs. […] There is a parallel between behaviors such as WDS in rats and hallucination in humans (Behavioral Neurobiology of Psychedelic Drugs, Halberstadt, Adam, Vollenweider, Franz X., Nichols, David E. (Eds.), Springer, 2018, p 161).

Long Evans rats [3] = assay: Progressive ratio (PR) test of motivation; assay type: in vivo
Procedure: High responders are defined as rats completing the highest tertile of lever presses in the baseline test; low responders are rats completing the bottom tertile of lever presses in the baseline test. Asterisk (*) indicates statistical significance between high and low responders.
(§1) Experiments were conducted to test psilocybin doses in the range of 0.05-0.2 mg/kg psilocybin administered S.C. across progressive ratio (PR) and 5-choice serial reaction time task (5CSRTT) to examine the effect of psilocybin on endophenotypes of motivation and attention. In each study, a population of out-bred Long Evans rats was first tested as a group for response to the PR and 5CSRTT. Each group was then divided into sub-groups by tertiles according to performance, and then exposed to various dose levels immediately prior to re-testing at various psilocybin dose levels.
The PR test is used to answer how willing the test subject is to work for food (i.e. test of motivation). A single 45 mg food pellet (i.e. reinforcer) is made available to the test animal based on lever press response. To obtain each successive pellet, the animal must make increasingly more lever presses. Typically, a progression of 2, 4, 6, 9, 12, 15, 20, 25, 32, 40, 50, 62, 77, 95, 118, etc. is used, derived from the equation: […]
At some point, the animal gives up as the motor demands to obtain a single pellet are not deemed worthwhile (i.e. animal reaches “break point” defined as animal's failure to earn a food pellet in 20 minutes).
Psilocybin was administered to rats S.C. at doses of 0.05, 0.1 and 0.2 mg/kg.
Rats were then sub-grouped into tertiles based on the number of lever presses for food at baseline, so that within the test population of 36 animals, 12 animals were identified as low responders, characterized by low motivation and potentially corresponding to low motivation endophenotype representative of clinical depression. Twelve animals were identified as high responders. There was a statistically significant difference between the high and low responders. […] This represents a motivational enhancing effect of psilocybin in the cohort corresponding to a low motivation endophenotype representative of clinical depression.

Long Evans rats [4] = assay: 5-choice serial reaction time task (5CSRTT), standard conditions, 5 s ITI; assay type: in vivo
Procedure: Asterisk (*) indicates statistical difference vs. vehicle. […] High performers are defined as rats completing the highest tertile of Hits or Correct nose-pokes in the baseline test; low performers are rats completing the bottom tertile of Hits or Correct nose-pokes in the baseline test.
Asterisk (*) indicates statistical significance vs. vehicle.
as §1
The 5CSRTT involves evaluating test subject response to a brief visual stimulus (Higgins, Guy & Silenieks, Leonardo. (2017). Rodent Test of Attention and Impulsivity: The 5-Choice Serial Reaction Time Task: The 5-Choice Serial Reaction Time Task. 10.1002/cpph.27). Animals are trained to make a nose-poke response to a stimulus location in order to collect a food reward. The task allows the experimenter to measure animal performance in multiple domains including: • Attention • Impulsivity • Perseveration • Speed of response
A strength of the test is its flexible configuration to challenge test subjects: • Standard test conditions (0.75 s stimulus duration (SD), 5 s inter-trial interval (ITI), 100 trials) • Multiple short stimulus duration (mSD) (0.03-1 s SD) • Fixed long ITI (5 s vs. 10 s ITI) • Multiple ultrashort ITI (2-5 s ITI) • Extended 250 trials
Asterisk (*) indicates statistical significance vs. vehicle. (FIG. 3A).
When this population is segmented into tertiles according to performance based on accuracy (% correct, calculated as #correct/(#correct+ #incorrect)*100), the lowest performing tertile (N=8) are considered to be low attentive and potentially representative of a low attentive endophenotype of depression (FIG. 6A). Low attentive rats also score poorly on % hit (FIG. 6B) and have a slower response speed (FIG. 6D). […] Asterisk (*) indicates statistical significance vs. vehicle.

Chain of 5-HT2A receptor (P14842 whole entry): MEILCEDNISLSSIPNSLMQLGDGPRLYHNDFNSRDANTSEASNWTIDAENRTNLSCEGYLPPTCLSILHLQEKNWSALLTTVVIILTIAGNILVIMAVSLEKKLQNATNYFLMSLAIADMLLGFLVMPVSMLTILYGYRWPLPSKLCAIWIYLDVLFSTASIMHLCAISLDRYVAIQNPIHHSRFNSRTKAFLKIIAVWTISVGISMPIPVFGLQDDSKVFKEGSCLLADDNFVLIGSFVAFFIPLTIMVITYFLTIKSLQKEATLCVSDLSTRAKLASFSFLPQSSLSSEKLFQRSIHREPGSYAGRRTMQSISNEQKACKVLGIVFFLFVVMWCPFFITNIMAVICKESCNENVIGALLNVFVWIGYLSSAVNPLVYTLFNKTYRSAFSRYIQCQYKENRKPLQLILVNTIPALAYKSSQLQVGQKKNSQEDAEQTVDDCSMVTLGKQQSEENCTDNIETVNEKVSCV

Compound: CN(C)CCc1c[nH]c2cccc(OP(=O)(O)O)c12 [psilocybin, 4-phosphoryloxy-N,N-dimethyltryptamine]
- PREM and PSV responses (Long Evans rats [1]): an increase (p=0.05, t-test) increase in PREM and PSV responses
- AUC0-tlast, psilocybin, Mean ([2]; 0.05 mg/kg s.c.): 10.7 ng·h/mL
- Cmax, psilocybin, Mean ([2]; 0.05 mg/kg s.c.): 18.9 ng/mL
- Cmax/Dose, psilocybin, Mean ([2]; 0.05 mg/kg s.c.): 377 kg·ng/mL/mg
- tmax, psilocybin, Mean ([2]; 0.05 mg/kg s.c.): 36 min
- AUC0-tlast, psilocybin, Mean ([2]; 0.1 mg/kg s.c.): 11.4 ng·h/mL
- Cmax, psilocybin, Mean ([2]; 0.1 mg/kg s.c.): 31.4 ng/mL
- Cmax/Dose, psilocybin, Mean ([2]; 0.1 mg/kg s.c.): 314 kg·ng/mL/mg
- tmax, psilocybin, Mean ([2]; 0.1 mg/kg s.c.): 19.3 min
- AUC0-inf, psilocybin, Mean ([2]; 1.0 mg/kg s.c.): 47.9 ng·h/mL
- AUC0-inf/Dose, psilocybin, Mean ([2]; 1.0 mg/kg s.c.): 47.9 kg·ng·h/mL/mg
- AUC0-tlast, psilocybin, Mean ([2]; 1.0 mg/kg s.c.): 53.1 ng·h/mL
- Apparent t1/2, psilocybin, Mean ([2]; 1.0 mg/kg s.c.): 26.7 min
- Cmax, psilocybin, Mean ([2]; 1.0 mg/kg s.c.): 78.3 ng/mL
- Cmax/Dose, psilocybin, Mean ([2]; 1.0 mg/kg s.c.): 78.3 kg·ng/mL/mg
- MRT0-inf, psilocybin, Mean ([2]; 1.0 mg/kg s.c.): 44.8 min
- tmax, psilocybin, Mean ([2]; 1.0 mg/kg s.c.): 21.4 min
- AUC0-inf, psilocybin, Mean ([2]; 10 mg/kg s.c.): 2156 ng·h/mL
- AUC0-inf/Dose, psilocybin, Mean ([2]; 10 mg/kg s.c.): 216 kg·ng·h/mL/mg
- AUC0-tlast, psilocybin, Mean ([2]; 10 mg/kg s.c.): 1707 ng·h/mL
- Apparent t1/2, psilocybin, Mean ([2]; 10 mg/kg s.c.): 34 min
- Cmax, psilocybin, Mean ([2]; 10 mg/kg s.c.): 3595 ng/mL
- Cmax/Dose, psilocybin, Mean ([2]; 10 mg/kg s.c.): 359 kg·ng/mL/mg
- MRT0-inf, psilocybin, Mean ([2]; 10 mg/kg s.c.): 43 min
- tmax, psilocybin, Mean ([2]; 10 mg/kg s.c.): 30 min
- distance travelled (rats; high doses): slightly decreased distanced travelled
- increase in distance travelled (rats; low doses): 0.3-0.4 fold
- signs of behavioral syndrome (WDS, BMC) (5-HT2A receptor; 0.3 mg/kg I.P and higher): significant signs of behavior syndrome
- signs of behavioral syndrome (WDS, BMC) (5-HT2A receptor; 0.03-0.1 mg/kg S.C.): no signs of behavioral syndrome
- PR food responding (lever presses, break point) (Long Evans rats [3]; 0.05 mg/kg S.C., low responder subgroup (12 rats)): an increase in food responding in low responder subgroup; also recorded: Significant improvements
- PR food responding (Long Evans rats [3]; 0.1 mg/kg S.C., low responder subgroup (12 rats)): did not produce an increase in food responding
- number of lever presses or break points (rewards earned) (Long Evans rats [3]; 0.05, 0.1 and 0.2 mg/kg S.C., entire study population of 36 rats): None of these doses were observed to cause obvious changes in the number of lever presses or break points
- PR response (lever presses) (Long Evans rats [3]; 0.05-0.2 mg/kg S.C., high responder subgroup (12 rats)): no effect on response in high responder subgroup
- detrimental effects on performance (motivation, motor control, attention, response speed) (Long Evans rats [3]; PR 0.05-0.2 mg/kg and 5CSRTT 0.05-0.1 mg/kg S.C.): no detrimental effects of psilocybin were noted on performance
- pro-cognitive effect, % hit (Long Evans rats [4]; 0.05 mg/kg S.C., 24 rats, 75 s SD, 5 S ITI, 100 trials, vs. vehicle): increased (p=0.05, t-test) pro-cognitive effect
- procognitive effect, % correct (Long Evans rats [4]; 0.05 mg/kg S.C., 24 rats, standard conditions): slight non-significant increase in procognitive effect
- response speed (Long Evans rats [4]; 0.05 mg/kg, low attentive cohort, vs. vehicle): increased response speed in the low attentive cohort compared with vehicle; also recorded: Significant improvements
- effect on accuracy (% correct and % hit) (Long Evans rats [4]; 0.05 and 0.1 mg/kg, low attentive subgroup (N=8), vs. vehicle): strongly evident in the low attentive subgroup compared with vehicle; also recorded: Significant improvements
